Legend:
Assay type in all cases: functional
EKVX = assay: Growth inhibition of human EKVX cells assessed as cell growth at 1 mM after 48 hrs by SRB assay; settings: read-out: Activity
NCI-H460 [1] = assay: Growth inhibition of human NCI-H460 cells assessed as cell growth at 100 uM after 48 hrs by SRB assay; settings: NCI-H460, 48 h, read-out: Activity
BT-549 = assay: Growth inhibition of human BT549 cells assessed as cell growth at 1 mM after 48 hrs by SRB assay; settings: BT-549, 48 h, read-out: Activity
SK-MEL-2 = assay: Growth inhibition of human SK-MEL-2 cells assessed as cell growth at 1 uM after 48 hrs by SRB assay; settings: SK-MEL-2, 48 h, read-out: Activity
SN12C = assay: Growth inhibition of human SN12C cells assessed as cell growth at 100 uM after 48 hrs by SRB assay; settings: read-out: Activity
OVCAR-4 = assay: Growth inhibition of human OVCAR4 cells assessed as cell growth at 1 uM after 48 hrs by SRB assay; settings: OVCAR-4, 48 h, read-out: Activity
HCT-116 = assay: Growth inhibition of human HCT116 cells assessed as cell growth at 1 mM after 48 hrs by SRB assay; settings: HCT-116, 48 h, read-out: Activity
NCI-H226 = assay: Growth inhibition of human NCI-H226 cells assessed as cell growth at 1 mM after 48 hrs by SRB assay; settings: NCI-H226, 48 h, read-out: Activity
SNB-19 = assay: Growth inhibition of human SNB19 cells assessed as cell growth at 1 uM after 48 hrs by SRB assay; settings: SNB-19, 48 h, read-out: Activity
RXF 393 [2] = assay: Growth inhibition of human RXF393 cells assessed as cell growth at 1 uM after 48 hrs by SRB assay; settings: RXF 393, 48 h, read-out: Activity
DU-145 = assay: Growth inhibition of human DU145 cells assessed as cell growth at 10 uM after 48 hrs by SRB assay; settings: DU-145, 48 h, read-out: Activity
HOP-92 [3] = assay: Growth inhibition of human HOP92 cells assessed as cell growth at 0.1 uM after 48 hrs by SRB assay; settings: HOP-92, 48 h, read-out: Activity
HL-60(TB) = assay: Growth inhibition of human HL-60(TB) cells assessed as cell growth at 10 uM after 48 hrs by SRB assay; settings: HL-60, 48 h, read-out: Activity
Malme-3M = assay: Growth inhibition of human MALME-3M cells assessed as cell growth at 100 uM after 48 hrs by SRB assay; settings: read-out: Activity
SNB-75 = assay: Growth inhibition of human SNB75 cells assessed as cell growth at 0.1 uM after 48 hrs by SRB assay; settings: SNB-75, 48 h, read-out: Activity
K562 = assay: Growth inhibition of human K562 cells assessed as cell growth at 10 uM after 48 hrs by SRB assay; settings: K562, 48 h, read-out: Activity
SF-268 = assay: Growth inhibition of human SF268 cells assessed as cell growth at 100 uM after 48 hrs by SRB assay; settings: SF-268, 48 h, read-out: Activity
SK-MEL-5 = assay: Growth inhibition of human SK-MEL-5 cells assessed as cell growth at 1 uM after 48 hrs by SRB assay; settings: SK-MEL-5, 48 h, read-out: Activity
MDA-MB-435 = assay: Growth inhibition of human MDA-MB-435 cells assessed as cell growth at 1 uM after 48 hrs by SRB assay; settings: MDA-MB-435, 48 h, read-out: Activity
NCI-H460 [4] = assay: Growth inhibition of human NCI-H460 cells assessed as cell growth at 1 mM after 48 hrs by SRB assay; settings: NCI-H460, 48 h, read-out: Activity
T47D = assay: Growth inhibition of human T47D cells assessed as cell growth at 0.1 uM after 48 hrs by SRB assay; settings: read-out: Activity
NCI-H522 = assay: Growth inhibition of human NCI-H522 cells after 48 hrs by […] growth inhibition assay; settings: NCI-H522, 48 h
NCI-H460 [5] = assay: Growth inhibition of human NCI-H460 cells assessed as cell growth at 10 uM after 48 hrs by SRB assay; settings: NCI-H460, 48 h, read-out: Activity
SF-539 = assay: Growth inhibition of human SF539 cells assessed as cell growth at 100 uM after 48 hrs by SRB assay; settings: SF-539, 48 h, read-out: Activity
MDA-MB-231 = assay: Growth inhibition of human MDA-MB-231 cells assessed as cell growth at 100 uM after 48 hrs by SRB assay; settings: MDA-MB-231, 48 h, read-out: Activity
COLO 205 = assay: Growth inhibition of human COLO205 cells assessed as cell growth at 100 uM after 48 hrs by SRB assay; settings: COLO 205, 48 h, read-out: Activity
RXF 393 [6] = assay: Growth inhibition of human RXF393 cells assessed as cell growth at 100 uM after 48 hrs by SRB assay; settings: RXF 393, 48 h, read-out: Activity
UACC-62 = assay: Growth inhibition of human UACC62 cells assessed as cell growth at 100 uM after 48 hrs by SRB assay; settings: UACC-62, 48 h, read-out: Activity
HOP-92 [7] = assay: Growth inhibition of human HOP92 cells assessed as cell growth at 100 uM after 48 hrs by SRB assay; settings: HOP-92, 48 h, read-out: Activity
LOX IMVI = assay: Growth inhibition of human LOXIMVI cells assessed as cell growth at 1 mM after 48 hrs by SRB assay; settings: read-out: Activity
IGROV-1 = assay: Growth inhibition of human IGROV1 cells assessed as cell growth at 1 uM after 48 hrs by SRB assay; settings: IGROV-1, 48 h, read-out: Activity
KM12 = assay: Growth inhibition of human KM12 cells assessed as cell growth at 1 uM after 48 hrs by SRB assay; settings: KM12, 48 h, read-out: Activity
SK-OV-3 = assay: Growth inhibition of human SKOV3 cells assessed as cell growth at 100 uM after 48 hrs by SRB assay; settings: SK-OV-3, 48 h, read-out: Activity
CCRF-CEM = assay: Growth inhibition of human CCRF-CEM cells assessed as cell growth at 100 uM after 48 hrs by SRB assay; settings: read-out: Activity
UO-31 = assay: Growth inhibition of human UO31 cells assessed as cell growth at 0.1 uM after 48 hrs by SRB assay; settings: UO-31, 48 h, read-out: Activity
HT-29 = assay: Growth inhibition of human HT-29 cells assessed as cell growth at 10 uM after 48 hrs by SRB assay; settings: HT-29, 48 h, read-out: Activity
PC-3 = assay: Growth inhibition of human PC3 cells assessed as cell growth at 10 uM after 48 hrs by SRB assay; settings: PC-3, 48 h, read-out: Activity

CCOC(=O)C[C@H]1[C@@H](O[Si](C)(C)C(C)(C)C)[C@H](n2cnc3c(NC(=O)Nc4ccccc4)ncnc32)O[C@@H]1CNC(=O)NC
growth at 1000 µM (EKVX): 42% | growth at 100 µM (NCI-H460 [1]): 32% | growth at 1000 µM (BT-549): 51% | growth at 1 µM (SK-MEL-2): 94% | growth at 100 µM (SN12C): 48% | growth at 1 µM (OVCAR-4): 103% | growth at 1000 µM (HCT-116): -88% | growth at 1000 µM (NCI-H226): 55% | growth at 1 µM (SNB-19): 95% | growth at 1 µM (RXF 393 [2]): 97% | growth at 10 µM (DU-145): 110% | growth at 0.1 µM (HOP-92 [3]): 4% | growth at 10 µM (HL-60(TB)): 101% | growth at 100 µM (Malme-3M): 50% | growth at 0.1 µM (SNB-75): 92% | growth at 10 µM (K562): 89% | growth at 100 µM (SF-268): 40% | growth at 1 µM (SK-MEL-5): 100% | growth at 1 µM (MDA-MB-435): 92% | growth at 1000 µM (NCI-H460 [4]): -49% | growth at 0.1 µM (T47D): 91% | GI50 (NCI-H522; read-out: GI50): 4.36 µM | CC50 (NCI-H522; read-out: LC50 (the source's name)): > 100 µM | TGI (NCI-H522; read-out: TGI): 85.7 µM | GI50 (NCI-H522; read-out: pGI50 (converted)): 4.37 µM | CC50 (NCI-H522; read-out: pLC50 (the source's name) (converted)): > 100 µM | TGI (NCI-H522; read-out: pTGI (converted)): 85.1 µM | growth at 10 µM (NCI-H460 [5]): 101% | growth at 100 µM (SF-539): 29% | growth at 100 µM (MDA-MB-231): 20% | growth at 100 µM (COLO 205): 20% | growth at 100 µM (RXF 393 [6]): -46% | growth at 100 µM (UACC-62): 82% | growth at 100 µM (HOP-92 [7]): -32% | growth at 1000 µM (LOX IMVI): 4% | growth at 1 µM (IGROV-1): 94% | growth at 1 µM (KM12): 112% | growth at 100 µM (SK-OV-3): 66% | growth at 100 µM (CCRF-CEM): 41% | growth at 0.1 µM (UO-31): 87% | growth at 10 µM (HT-29): 104% | growth at 10 µM (PC-3): 103%
